Article PMC9114382, “The K-Ras(G12D)-inhibitory peptide KS-58 suppresses growth of murine CT26 colorectal cancer cell-derived tumors” (Scientific Reports, 2022)
Numbered stars: 1 amine (or outer) side, 2 acyl side, 3 side chain; on linkers, the order of the positions; unused ones are H or OH. Bridge positions count the residues as written; N and C are the ends. Square brackets hold non-standard residues; d marks the D form. Peptide text beside a SMILES is read from it. Phe(4-F) = N[C@@H](Cc1ccc(F)cc1)C(=O)O; X1 = CCCCCCC[C@H](N[*:1])C(=O)[*:2]; Nle = CCCC[C@H](N)C(=O)O; X2 = C(C[*:1])C[*:2]; βAla = NCCC(=O)O

How the values were obtained:
[1] = Stability in human liver microsomes; assay type: in vitro ADME; settings: human hepatic microsomes (XenoTech), with NADP cofactor, 37 °C, 1 h incubation, LC-MS/MS, read-out: fraction of initial concentration remaining in human liver microsomes
Description: (§1) Experimental procedures that involved animals and their care were conducted in compliance with the Guide for the Care and Use of Laboratory Animals[15] and ARRIVE guidelines[16],[17]. Animal experiments were approved by the Animal Care and Use Committee of Osaka University (approval No. DouyakuR01-3–1) and conducted at Osaka University in accordance with the guidelines. LC–MS/MS data were obtained using a Xevo TQ-S mass spectroscopy system (Waters Corp., Milford, MA, USA) connected to an ACQUITY UPLC system (Waters) equipped with a BEH C18 column (1.7 μm, 2.1 × 50 mm, Waters). Mobile phase A was 0.1% formic acid in water and mobile phase B was 0.1% formic acid in acetonitrile. The gradient elution profile was 2% B at 0 min to 98% B at 1.8 min, and the flow rate was 0.5 mL/min.
(§2) For evaluation of stability, KS-58 was incubated with commercial hepatic microsomes (XenoTech Ltd, KS, USA) in X medium supplemented with nicotinamide adenine dinucleotide phosphate for 10 and 60 min at 37 °C. The fraction (%) remaining in the medium was determined using the LC–MS/MS system (Waters). We also examined the fraction (%) remaining in fresh mouse blood after 60 and 120 min of incubation at 37 °C using the same LC–MS/MS system.

[2] = Translocation to blood cells; assay type: in vitro ADME; settings: whole blood (Fig. 4D)
[3] = estimated using RP-HPLC; cited from earlier work
[4] = Stability in mouse whole blood; assay type: in vitro ADME; settings: fresh whole blood, 37 °C, 2 h incubation, LC-MS/MS, read-out: fraction of initial concentration intact in whole blood
Description: as §1, §2

[5] = Systemic safety in CT26 tumor-bearing mice (body and organ weights, kidney and liver histomorphology); assay type: in vivo, mouse
Description: Experimental procedures that involved animals and their care were conducted in compliance with the Guide for the Care and Use of Laboratory Animals[15] and ARRIVE guidelines[16],[17]. Animal experiments were approved by Animal Care and Use Committee of UNITECH Co. Ltd. (Kashiwa, Japan) (approval No. AGR IMF-210415A-30) and conducted at UNITECH in accordance with the guidelines. To establish subcutaneous allograft tumors, 1 × 10^6 CT26 cells/100 µL were subcutaneously injected into the left groin region of BALB/cCrSlc female mice (7 weeks old; Japan SLC, Inc., Shizuoka, Japan). Immediately before treatment, KS-58 was dissolved in DMSO and then diluted tenfold in normal saline. Tumor-baring mice in vehicle control, KS-58 (low), and KS-58 (high) groups were injected intravenously with vehicle (1:10 DMSO to saline, v/v), 10 mg/kg KS-58 solution, or 40 mg/kg KS-58 solution, respectively, once every 2 days for 17 days (n = 8 mice per major group, n = 3 mice per satellite group) (Fig. 1B). For anti-PD-1 monotherapy or combination treatment, GoInVivo Purified anti-mouse PD-1 (CD279, Cat.#114114, BioLegend, San Diego, CA, USA) was dissolved in PBS and injected intraperitoneally at 50 mg/kg on days 6, 8, and 10 (n = 8 mice in major groups, n = 3 in satellite groups). Tumor growth rate was recorded on day 1, 4, 8, 11, 15, and 17 by measuring the major and minor axes with a digital caliper. Measurements were transformed into tumor volumes using the formula tumor volume (mm^3) = major axis × minor axis^2 × 0.5. Tumors (with surrounding skin), liver, and kidneys were collected from satellite groups on day 15, fixed in formalin, and then maintained in 70% ethanol for histological analyses. Tumor, liver, and kidneys were collected from major groups on day 17 within 3 h of the last injection and weighed. The tumors were subsequently frozen in liquid nitrogen and stored at − 80 °C until homogenization for Western blotting.
Tumors, livers, and kidneys were harvested from mice and fixed with 10% neutral-buffered formalin. […]

[6] = Plasma protein binding (dialysis); assay type: in vitro ADME; settings: dialysis of plasma against PBS pH 7.4, 5 h, 37 °C, LC-MS/MS, human and mouse plasma (Fig. 4E)
Description: as §1
For evaluation of plasma protein binding, the plasma compartment containing KS-58 was dialyzed against PBS (pH 7.4) for 5 h at 37 °C and the concentrations remaining in each compartment were quantified by LC–MS/MS.

[7] = Pharmacokinetics after intravenous injection; assay type: in vivo, mouse; settings: 10 mg/kg i.v., LC-MS/MS
Description: as §1
For pharmacokinetics studies, KS-58 was dissolved in saline and administered intravenously to female BALB/c mice at 10 mg/kg. Serial blood samples (20 μL) were collected from the tail vein using heparinized tips at 7.5, 15, 30, 60, 120, 240, 320, and 1440 min after KS-58 administration. Aliquots (5 μL) of plasma obtained from each blood sample were treated with 50 μL acetonitrile and the organic layer was injected onto the LC–MS/MS system. Pharmacokinetic parameters were obtained by fitting the plasma concentration–time data to a noncompartmental model using PKPlus software (Northern Science Consulting Inc, Sapporo, Japan).

[8] = Stability in mouse liver microsomes; assay type: in vitro ADME; settings: mouse hepatic microsomes (XenoTech), with NADP cofactor, 37 °C, 1 h incubation, LC-MS/MS, read-out: fraction of initial concentration remaining in mouse liver microsomes
Description: as §1, §2

[9] = satellite groups, day 15, HE staining, n = 3

Question: Which remaining at 1 h [1] does the source give for `CCCCCCC[C@@H]1NC(=O)[C@@H]2CSCCCSC[C@@H](NC(=O)[C@H](Cc3c[nH]c4ccccc34)NC(=O)[C@@H]3CCCN3C(=O)[C@H](CC(=O)O)NC(=O)[C@H](Cc3ccc(F)cc3)NC(=O)[C@H](CO)NC1=O)C(=O)NCCC(=O)N1CCC[C@H]1C(=O)N[C@@H](CCCC)C(=O)N2` [KS-58] (cyclo([βAla]P[Nle]C[X1]S[Phe(4-F)]DPW[dC]); linker 4-11 via X2) here?
Answer: Its remaining at 1 h is 77%.

Question: And the “translocation into blood cells” value [2]?
Answer: The value was “a substantial fraction of KS-58 was translocated into blood cells”.

Question: And the “half-life in whole blood” value [3]?
Answer: Its value is ~ 60 min.

Question: And the remaining at 2 h [4]?
Answer: Its remaining at 2 h is 92.3%.

Question: And the “body weight gain/loss and weights of liver and kidney vs vehicle controls” value ([5]; KS-58 10 or 40 mg/kg i.v. every 2 days for 17 days, n = 8)?
Answer: The value was “neither body weight gain/loss (Fig. 2B) nor the weights of liver and kidney (Fig. 2C) were significantly altered”.

Question: What about the kidney histomorphology [5, 9] of the same molecule?
Answer: Its kidney histomorphology is “No obvious histological changes in any of the nephron segments”.

Question: What about the liver histomorphology [5, 9] of the same molecule?
Answer: Its liver histomorphology is “hepatocellular hypertrophy with cytoplasmic eosinophilic change”.

Question: And the “fraction bound to plasma proteins” value [6]?
Answer: Its value is “more than 90%”.

Question: What about the fraction unbound at 5 h ([6]; read-out: free fraction in plasma) of the same molecule?
Answer: The fraction unbound at 5 h was less than 0.1.

Question: And the “time at which plasma concentration decreased to ~50% of the initial concentration” value ([7]; mice)?
Answer: The value was “about 30 min”.

Question: What about the “plasma concentration after 4 h” value ([7]; mice, limit of detection ~250 nM) of the same molecule?
Answer: The value was “below the limit of detection”.

Question: What about the half-life ([7]; mouse, iv, female BALB/c mice, plasma, noncompartmental, mean ± SD, n = 3) of the same molecule?
Answer: Its half-life is roughly 30 min.

Question: And the remaining at 1 h [8]?
Answer: The remaining at 1 h was 46.2%.
